Assay results reported in PubChem BioAssay AID330 (DTP/NCI, 2004).
Several values for one entry are separate records, joined by “and”; a condition that tells them apart may be missing. Identical values can stand only once. Inconclusive results and toxic doses are left out. The calls were made as follows: active = survival T/C of 150% or more; inactive = T/C below 125% in these data.

Test system: P388 leukemia ip, CD2F1 mice, survival T/C
Assay: NCI In Vivo Anticancer Drug Screen. Data for tumor model P388 Leukemia (intraperitoneal) in CD2F1 (CDF1) mice
Settings: endpoint: median survival time, higher = longer survival
Outline: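 Mice carrying the transplanted tumor received test compound or vehicle. Survival was recorded in each group, and the value is the treated-group measurement divided by that of the vehicle-treated control group.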

[1] = dose: 50.0 mg/kg/injection, schedule: Q01DX005 (ip), vehicle: Klucel (hydroxypropylcellulose) (HPC)
[2] = dose: 100.0 mg/kg/injection, schedule: Q01DX005 (ip), vehicle: Klucel (hydroxypropylcellulose) (HPC)
[3] = dose: 50.0 mg/kg/injection, schedule: Q01DX009 (ip), vehicle: Klucel (hydroxypropylcellulose) (HPC)
[4] = dose: 100.0 mg/kg/injection, schedule: Q01DX009 (ip), vehicle: Klucel (hydroxypropylcellulose) (HPC)
[5] = dose: 200.0 mg/kg/injection, schedule: Q01DX009 (ip), vehicle: Klucel (hydroxypropylcellulose) (HPC)
[6] = dose: 25.0 mg/kg/injection, schedule: Q01DX001 (ip), vehicle: saline
[7] = dose: 50.0 mg/kg/injection, schedule: Q01DX001 (ip), vehicle: saline
[8] = dose: 60.0 mg/kg/injection, schedule: Q01DX005 (ip), vehicle: saline
[9] = dose: 120.0 mg/kg/injection, schedule: Q01DX005 (ip), vehicle: saline
[10] = dose: 240.0 mg/kg/injection, schedule: Q01DX005 (ip), vehicle: saline
[11] = dose: 1.25 mg/kg/injection, schedule: Q01DX005 (ip), vehicle: saline with Tween-80
[12] = dose: 2.5 mg/kg/injection, schedule: Q01DX005 (ip), vehicle: saline with Tween-80
[13] = dose: 5.0 mg/kg/injection, schedule: Q01DX005 (ip), vehicle: saline with Tween-80
[14] = dose: 10.0 mg/kg/injection, schedule: Q01DX005 (ip), vehicle: saline with Tween-80
[15] = dose: 60.0 mg/kg/injection, schedule: Q01DX005 (ip), vehicle: saline with Tween-80
[16] = dose: 50.0 mg/kg/injection, schedule: Q01DX009 (ip), vehicle: saline with Tween-80
[17] = dose: 100.0 mg/kg/injection, schedule: Q01DX009 (ip), vehicle: saline with Tween-80

Measured: T/C

COc1ccc(/C=C2\N=C(c3ccccc3)OC2=O)c(OCc2ccccc2)c1
inactive: dose: 12.5 mg/kg/injection, schedule: Q01DX009 (ip), vehicle: other 88 % of control | dose: 25.0 mg/kg/injection, schedule: Q01DX009 (ip), vehicle: other 89 % of control | dose: 100.0 mg/kg/injection, schedule: Q01DX009 (ip), vehicle: other 88 % of control | dose: 200.0 mg/kg/injection, schedule: Q01DX009 (ip), vehicle: other 94 % of control

CCOC(=O)N1C=CC(C2C=CN(C(=O)OCC)C=C2)C=C1
inactive: dose: 10.0 mg/kg/injection, schedule: Q01DX009 (ip), vehicle: saline with Tween-80 111 % of control | dose: 20.0 mg/kg/injection, schedule: Q01DX009 (ip), vehicle: saline with Tween-80 96 % of control | dose: 40.0 mg/kg/injection, schedule: Q01DX009 (ip), vehicle: saline with Tween-80 105 % of control

Cc1cc(C)c2c(c1)CC(C)(C)CC2(O)C1CCCCN1 (configuration not stated)
inactive: [1] 100 % of control | [2] 108 % of control

O=c1[nH]c2ccccc2c(=O)n1CCCCCCN1CCN(c2cccc(Cl)c2)CC1
inactive: [3] 96 % of control | [4] 105 % of control | [5] 100 % of control

CCOC(=O)c1ccc(C(=O)OCC)nc1
inactive: [6] 100 % of control | [7] 100 % of control | dose: 100.0 mg/kg/injection, schedule: Q01DX001 (ip), vehicle: saline 100 % of control

O=C(O)CC(=O)NC1c2ccccc2Oc2ccccc21
inactive: [1] 94 % of control | [2] 97 % of control | dose: 200.0 mg/kg/injection, schedule: Q01DX005 (ip), vehicle: Klucel (hydroxypropylcellulose) (HPC) 99 % of control

CCOC(=O)c1ccc(NC(=O)c2cccc(Cl)c2)cc1
inactive: [3] 104 % of control | [4] 100 % of control | [5] 98 % of control

O=c1c2ccccc2sc2c([N+](=O)[O-])ccc(NCCC3CCCN4CCCCC34)c12 (configuration not stated)
inactive: dose: 44.5 mg/kg/injection, schedule: Q01DX005 (ip), vehicle: saline with Tween-80 95 % of control | dose: 89.0 mg/kg/injection, schedule: Q01DX005 (ip), vehicle: saline with Tween-80 94 % of control | dose: 178.0 mg/kg/injection, schedule: Q01DX005 (ip), vehicle: saline with Tween-80 96 % of control | dose: 356.0 mg/kg/injection, schedule: Q01DX005 (ip), vehicle: saline with Tween-80 100 % of control

COc1ccn(CC(C)=O)c(=O)n1
inactive: [8] 100 % of control | [9] 100 % of control | [10] 100 % of control

NC(=O)C12OC3CC(CC(C3)O1)O2
inactive: [8] 117 % of control | [9] 98 % of control | [10] 99 % of control

COC(=O)c1[nH]cnc1O
inactive: dose: 50.0 mg/kg/injection, schedule: Q01DX005 (ip), vehicle: water 103 % of control | dose: 100.0 mg/kg/injection, schedule: Q01DX005 (ip), vehicle: water 113 % of control | dose: 200.0 mg/kg/injection, schedule: Q01DX005 (ip), vehicle: water 103 % of control

CCCC(O)C[N+](=O)[O-] (configuration not stated)
inactive: dose: 100.0 mg/kg/injection, schedule: Q04DX003 (ip), vehicle: saline 109 % of control | dose: 200.0 mg/kg/injection, schedule: Q04DX003 (ip), vehicle: saline 109 % of control | dose: 400.0 mg/kg/injection, schedule: Q04DX003 (ip), vehicle: saline 118 % of control

O=c1c2ccccc2sc2c(CO)ccc(NCCCN3CCN(CCCNc4ccc(CO)c5sc6ccccc6c(=O)c45)CC3)c12
inactive: dose: 0.67 mg/kg/injection, schedule: Q01DX005 (ip), vehicle: saline with Tween-80 93 % of control | [11] 104 % of control | [12] 107 % of control | [13] 95 % of control | [14] 104 % of control | dose: 20.0 mg/kg/injection, schedule: Q01DX005 (ip), vehicle: saline with Tween-80 94 % of control | dose: 40.0 mg/kg/injection, schedule: Q01DX005 (ip), vehicle: saline with Tween-80 86 % of control and 95 % of control | dose: 80.0 mg/kg/injection, schedule: Q01DX005 (ip), vehicle: saline with Tween-80 90 % of control

CCCC/C([O-])=C1/C(=O)N(c2ccccc2)N=C1C.CCCC/C([O-])=C1/C(=O)N(c2ccccc2)N=C1C.[Cu+2]
inactive: [15] 90 % of control | dose: 120.0 mg/kg/injection, schedule: Q01DX005 (ip), vehicle: saline with Tween-80 97 % of control | dose: 240.0 mg/kg/injection, schedule: Q01DX005 (ip), vehicle: saline with Tween-80 96 % of control

CCOC(=O)Nc1nc2ccccc2n1CN1CCN(c2ccccc2)CC1
inactive: dose: 25.0 mg/kg/injection, schedule: Q01DX005 (ip), vehicle: Klucel (hydroxypropylcellulose) (HPC) 92 % of control | [1] 95 % of control | [2] 100 % of control

COC1=C(Br)[C@H](O)[C@](O)(CC#N)C=C1Br
inactive: dose: 6.25 mg/kg/injection, schedule: Q01DX009 (ip), vehicle: saline 121 % of control | dose: 8.75 mg/kg/injection, schedule: Q01DX009 (ip), vehicle: Klucel (hydroxypropylcellulose) (HPC) 119 % of control | dose: 12.5 mg/kg/injection, schedule: Q01DX009 (ip), vehicle: saline 123 % of control | dose: 25.0 mg/kg/injection, schedule: Q01DX009 (ip), vehicle: saline 118 % of control

CN(C)CCSc1nc2ccccc2o1
inactive: [8] 105 % of control | [9] 104 % of control

Oc1cc2c(cc1O)C(c1ccccc1)CNCC2 (configuration not stated)
inactive: dose: 25.0 mg/kg/injection, schedule: Q01DX009 (ip), vehicle: saline with Tween-80 103 % of control | [16] 97 % of control | [17] 104 % of control

CN(C)CCN1C(=O)Cc2ccccc2C1=O
inactive: dose: 12.5 mg/kg/injection, schedule: Q01DX001 (ip), vehicle: saline 111 % of control | [6] 109 % of control | [7] 101 % of control

C=C1[C@H]2C[C@H]2[C@]2(C)C[C@@H]3OC(=O)C(C)=C3C[C@@H]12
inactive: dose: 4.88 mg/kg/injection, schedule: Q01DX005 (ip), vehicle: Klucel (hydroxypropylcellulose) (HPC) 89 % of control | dose: 9.75 mg/kg/injection, schedule: Q01DX005 (ip), vehicle: Klucel (hydroxypropylcellulose) (HPC) 94 % of control | dose: 39.0 mg/kg/injection, schedule: Q01DX005 (ip), vehicle: Klucel (hydroxypropylcellulose) (HPC) 94 % of control | dose: 78.0 mg/kg/injection, schedule: Q01DX005 (ip), vehicle: Klucel (hydroxypropylcellulose) (HPC) 94 % of control

CC(C)(O)CCC(=O)[C@](C)(O)[C@H]1[C@H](O)C[C@@]2(C)[C@@H]3CC=C4[C@@H](C[C@@H](O)[C@@H](O)C4(C)C)[C@]3(C)C(=O)C[C@]12C
inactive: [11] 100 % of control | [12] 97 % of control | [13] 95 % of control | [14] 104 % of control

O=C1OC(OC/C(Br)=C(\Br)COC2OC(=O)C(Cl)=C2Cl)C(Cl)=C1Cl (configuration not stated)
inactive: dose: 15.0 mg/kg/injection, schedule: Q01DX005 (ip), vehicle: saline with Tween-80 103 % of control | dose: 30.0 mg/kg/injection, schedule: Q01DX005 (ip), vehicle: saline with Tween-80 103 % of control | [15] 112 % of control

C#CCSc1nnnn1-c1ccccc1
inactive: [16] 98 % of control | [17] 90 % of control | dose: 200.0 mg/kg/injection, schedule: Q01DX009 (ip), vehicle: saline with Tween-80 90 % of control
